# From publication PMC2976827 (Neuropharmacology, 2010)
# Biological target: T1, GluK1 (Rattus norvegicus, UniProt P22756, DEL560-681)
# T1 sequence (P22756 446-559): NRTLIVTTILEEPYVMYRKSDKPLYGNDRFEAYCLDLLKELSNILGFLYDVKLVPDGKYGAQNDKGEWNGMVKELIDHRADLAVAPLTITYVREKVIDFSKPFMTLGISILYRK
# T1 sequence (P22756 682-821): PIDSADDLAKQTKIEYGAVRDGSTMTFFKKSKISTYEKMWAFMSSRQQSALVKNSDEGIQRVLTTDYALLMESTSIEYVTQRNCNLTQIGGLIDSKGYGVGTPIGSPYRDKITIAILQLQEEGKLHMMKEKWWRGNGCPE
# Assay: crystal structure
# Type: binding
row,Structure (SMILES),Kd
1,"Cc1cn(C[C@H](N)C(=O)O)c(=O)n(Cc2c(C(=O)O)sc(Br)c2Br)c1=O [UBP315, (S)-1-(2-Amino-2-carboxyethyl)-3-(2-carboxy-4,5-dibromothiophene-3-yl-methyl)-5-methylpyrimidine-2,4-dione]",33 nM
2,"N[C@@H](Cn1cc(Br)c(=O)n(Cc2ccsc2C(=O)O)c1=O)C(=O)O [UBP318, (S)-1-(2-amino-2-carboxyethyl)-5-bromo-3-(2-carboxythiophene-3-yl-methyl)pyrimidine-2,4-dione]",186 nM
